Results reported in patent US20240238295A1, “METHOD FOR MODULATING NEUROPATHIES” (priority 2021, published 2024).
Where “and” joins values, the source holds several entries; their conditions need not be identical. Equal values may be shown once.

How the values were obtained:
Assay type in all cases: in vivo, rhesus monkey (Macaca mulatta)
[1] = system: retinal ganglion cells (RGC); experiment: Brn3a immunohistochemistry retinal ganglion cell count, retinal ischemia/reperfusion (I/R) model; conditions: for average loss of RGC cells: I/R eyes vs contralateral OS eye, Day 63 after retinal I/R, oral 63 days; for protection on retinal ganglion cells: retinal I/R, 63 days of treatment; as to average loss of RGC cells: test concentration or dose not given here
[2] = system: retinal ischemia/reperfusion (I/R) rhesus monkey model; experiment: OCT mean thickness of 9-room retinal EDTRS area, retinal I/R model; conditions: change vs before modeling; also: test concentration or dose not given here
[3] = system: retinal ischemia/reperfusion (I/R) rhesus monkey model; experiment: OCT Global mean thickness of retinal nerve fiber layer (RNFL), retinal I/R model; conditions: change vs before modeling; also: test concentration or dose not given here
[4] = system: rhesus monkeys with spontaneous diabetic peripheral neuropathy; experiment: Nerve electromyogram: sensory nerve conduction velocity (SCV) of abnormal nerves, spontaneous DPN model; conditions: for Variation value, sensory nerve conduction velocity, Mean ± SD / Administration D58, sensory nerve conduction velocity, Mean ± SD / Baseline value, sensory nerve conduction velocity, Mean ± SD: group mean over all abnormal nerves; for Variation value, sensory nerve conduction velocity, Mean ± SD / Variation value, sensory nerve conduction velocity: D58 minus baseline; for Administration D58, sensory nerve conduction velocity, Mean ± SD / Administration D58, sensory nerve conduction velocity: Day 58 of administration; for Baseline value, sensory nerve conduction velocity, Mean ± SD / Baseline value, sensory nerve conduction velocity: before administration; for Variation value, sensory nerve conduction velocity / Administration D58, sensory nerve conduction velocity / Baseline value, sensory nerve conduction velocity: individual animal; as to Administration D58, sensory nerve conduction velocity, Mean ± SD: test concentration or dose not given here; as to Administration D58, sensory nerve conduction velocity: test concentration or dose not given here; as to Variation value, sensory nerve conduction velocity, Mean ± SD: test concentration or dose not given here; as to Variation value, sensory nerve conduction velocity: test concentration or dose not given here
[5] = system: sural nerve of rhesus monkeys with spontaneous diabetic peripheral neuropathy; experiment: Nerve electromyogram: sural sensory nerve conduction velocity, spontaneous DPN model; conditions: for Change value, sural sensory nerve conduction velocity, Mean ± SD / D58 of administration, sural sensory nerve conduction velocity, Mean ± SD / Baseline value, sural sensory nerve conduction velocity, Mean ± SD: group mean over abnormal sural nerves; for Change value, sural sensory nerve conduction velocity, Mean ± SD / Change value, sural sensory nerve conduction velocity: D58 minus baseline; for D58 of administration, sural sensory nerve conduction velocity, Mean ± SD / D58 of administration, sural sensory nerve conduction velocity: Day 58 of administration; for Baseline value, sural sensory nerve conduction velocity, Mean ± SD: before administration; for Change value, sural sensory nerve conduction velocity / D58 of administration, sural sensory nerve conduction velocity: individual animal; as to Change value, sural sensory nerve conduction velocity, Mean ± SD: test concentration or dose not given here; as to Change value, sural sensory nerve conduction velocity: test concentration or dose not given here; as to D58 of administration, sural sensory nerve conduction velocity, Mean ± SD: test concentration or dose not given here; as to D58 of administration, sural sensory nerve conduction velocity: test concentration or dose not given here
[6] = OS (non-ischemic contralateral eye), Day 7
[7] = OS (non-ischemic contralateral eye), Day 21
[8] = OS (non-ischemic contralateral eye), Day 35
[9] = OS (non-ischemic contralateral eye), Day 63
[10] = spontaneous DPN, 58 days, P>0.05 vs placebo group

Structure (SMILES): COc1cc2nc(N3CCN(C(=O)C4COc5ccccc5O4)CC3)nc(N)c2cc1OC (racemic) [DOX, (RS)-2-[4-(2,3-Dihydro-1,4-benzodioxine-2-carbonyl)piperazin-1-yl]-6,7-dimethoxyquinazolin-4-amine]
- average loss of RGC cells [1]: 63.9±14.1%
- protection on retinal ganglion cells [1]: weak protection
- Δ mean thickness of the 9-room retinal EDTRS area ([2]; OD (IR injury), Day 7): −26 ± 0 μm
- Δ mean thickness of the 9-room retinal EDTRS area ([2]; OD (IR injury), Day 21): −48 ± 7 μm
- Δ mean thickness of the 9-room retinal EDTRS area ([2]; OD (IR injury), Day 35): −54 ± 10 μm
- Δ mean thickness of the 9-room retinal EDTRS area ([2]; OD (IR injury), Day 63): −58 ± 9 μm
- Δ mean thickness of the 9-room retinal EDTRS area [2, 6]: −5 ± 4 μm
- Δ mean thickness of the 9-room retinal EDTRS area [2, 7]: −3 ± 4 μm
- Δ mean thickness of the 9-room retinal EDTRS area [2, 8]: −3 ± 3 μm
- Δ mean thickness of the 9-room retinal EDTRS area [2, 9]: −3 ± 5 μm
- Δ Global mean thickness of retinal nerve fiber layer (RNFL) ([3]; OD (I/R injury), Day 35): −14 ± 4 μm
- Δ Global mean thickness of retinal nerve fiber layer (RNFL) ([3]; OD (I/R injury), Day 63): −21 ± 7 μm
- Δ Global mean thickness of retinal nerve fiber layer (RNFL) [3, 8]: 1 ± 2 μm
- Δ Global mean thickness of retinal nerve fiber layer (RNFL) [3, 9]: 1 ± 1 μm

Structure (SMILES): CC(/C=C1\SC(=S)N(CC(=O)O)C1=O)=C\c1ccccc1 [Epalrestat, epalrestat]
- Variation value, sensory nerve conduction velocity, Mean ± SD [4]: 4.2 ± 4.0 m/s
- Administration D58, sensory nerve conduction velocity, Mean ± SD [4]: 43.6 ± 7.3 m/s
- Baseline value, sensory nerve conduction velocity, Mean ± SD [4]: 38.8 ± 4.7 m/s
- Variation value, sensory nerve conduction velocity ([4]; left median nerve (abnormal)): 1.5 m/s and 8.6 m/s
- Administration D58, sensory nerve conduction velocity ([4]; left median nerve (abnormal)): 40 m/s and 51.2 m/s
- Baseline value, sensory nerve conduction velocity ([4]; left median nerve (abnormal)): 38.5 m/s and 42.6 m/s
- Variation value, sensory nerve conduction velocity ([4]; left sural nerve (abnormal)): −1.1 m/s and 5.6 m/s and 6.1 m/s
- Baseline value, sensory nerve conduction velocity ([4]; left sural nerve (abnormal)): 40.4 m/s and 39.6 m/s and 35.3 m/s
- Variation value, sensory nerve conduction velocity ([4]; left ulnar nerve (abnormal)): 8.3 m/s
- Administration D58, sensory nerve conduction velocity ([4]; left ulnar nerve (abnormal)): 50.7 m/s
- Baseline value, sensory nerve conduction velocity ([4]; left ulnar nerve (abnormal)): 42.4 m/s
- Variation value, sensory nerve conduction velocity ([4]; right median nerve (abnormal)): −0.7 m/s and 4.8 m/s
- Administration D58, sensory nerve conduction velocity ([4]; right median nerve (abnormal)): 25.1 m/s and 48.2 m/s
- Baseline value, sensory nerve conduction velocity ([4]; right median nerve (abnormal)): 25.8 m/s and 43.4 m/s
- Variation value, sensory nerve conduction velocity ([4]; right sural nerve (abnormal)): 0.4 m/s and 2.8 m/s and −0.6 m/s and 9.3 m/s
- Baseline value, sensory nerve conduction velocity ([4]; right sural nerve (abnormal)): 40.9 m/s and 36.8 m/s and 44.4 m/s and 34.6 m/s
- Variation value, sensory nerve conduction velocity ([4]; right ulnar nerve (abnormal)): 9.2 m/s
- Administration D58, sensory nerve conduction velocity ([4]; right ulnar nerve (abnormal)): 48.4 m/s
- Baseline value, sensory nerve conduction velocity ([4]; right ulnar nerve (abnormal)): 39.2 m/s
- mean increase in SCV of nerves with abnormal conduction velocities vs baseline ([4]; spontaneous DPN, administered for 58 days): 4.2±4.0 m/s
- Change value, sural sensory nerve conduction velocity, Mean ± SD [5]: 3.2 ± 3.9 m/s
- D58 of administration, sural sensory nerve conduction velocity, Mean ± SD [5]: 42.1 ± 2.1 m/s
- Baseline value, sural sensory nerve conduction velocity, Mean ± SD [5]: 38.9 ± 3.2 m/s
- Change value, sural sensory nerve conduction velocity ([5]; left sural nerve (abnormal)): 6.1 m/s and −1.1 m/s and 5.6 m/s
- D58 of administration, sural sensory nerve conduction velocity ([5]; left sural nerve (abnormal)): 41.4 m/s and 39.3 m/s and 45.2 m/s
- Change value, sural sensory nerve conduction velocity ([5]; right sural nerve (abnormal)): 9.3 m/s and 0.4 m/s and 2.8 m/s and −0.6 m/s
- D58 of administration, sural sensory nerve conduction velocity ([5]; right sural nerve (abnormal)): 43.9 m/s and 41.3 m/s and 39.6 m/s and 43.8 m/s
- average increase in sensory nerve conduction velocity (SCV) of abnormal sural nerves vs baseline ([5]; spontaneous DPN, 58 days of administration): 3.2±3.9 m/s
- nerves determined to be effectively improved in conduction velocity (of abnormal sural nerves) ([5]; spontaneous DPN, 58 days, effective = return to normal or increase by 2-5 m/s or more): 4/7

Structure (SMILES): CCCN[C@H]1CCc2nc(N)sc2C1 [PMP, (S)—N6-propyl-4,5,6,7-tetrahydro-1,3-benzothiazole-2,6-diamine]
- average loss of RGC cells [1]: 60.0%
- protection on retinal ganglion cells [1]: weak protection
- Δ mean thickness of the 9-room retinal EDTRS area ([2]; OD (IR injury), Day 7): −50 ± 14 μm
- Δ mean thickness of the 9-room retinal EDTRS area ([2]; OD (IR injury), Day 21): −79 ± 15 μm
- Δ mean thickness of the 9-room retinal EDTRS area ([2]; OD (IR injury), Day 35): −85 ± 14 μm
- Δ mean thickness of the 9-room retinal EDTRS area ([2]; OD (IR injury), Day 63): −88 ± 18 μm
- Δ mean thickness of the 9-room retinal EDTRS area [2, 6]: −3 ± 5 μm
- Δ mean thickness of the 9-room retinal EDTRS area [2, 7]: −6 ± 3 μm
- Δ mean thickness of the 9-room retinal EDTRS area [2, 8]: −2 ± 4 μm
- Δ mean thickness of the 9-room retinal EDTRS area [2, 9]: 3 ± 3 μm
- Δ Global mean thickness of retinal nerve fiber layer (RNFL) ([3]; OD (I/R injury), Day 35): −41 ± 8 μm
- Δ Global mean thickness of retinal nerve fiber layer (RNFL) ([3]; OD (I/R injury), Day 63): −46 ± 3 μm
- Δ Global mean thickness of retinal nerve fiber layer (RNFL) [3, 8]: −2 ± 1 μm
- Δ Global mean thickness of retinal nerve fiber layer (RNFL) [3, 9]: 2 ± 1 μm
- Variation value, sensory nerve conduction velocity, Mean ± SD [4]: 0.4 ± 1.3 m/s
- Administration D58, sensory nerve conduction velocity, Mean ± SD [4]: 39.0 ± 5.1 m/s
- Baseline value, sensory nerve conduction velocity, Mean ± SD [4]: 38.6 ± 4.9 m/s
- Variation value, sensory nerve conduction velocity ([4]; left median nerve (abnormal)): −1.9 m/s and 0.8 m/s
- Administration D58, sensory nerve conduction velocity ([4]; left median nerve (abnormal)): 42.1 m/s and 40.0 m/s
- Baseline value, sensory nerve conduction velocity ([4]; left median nerve (abnormal)): 44.0 m/s and 39.2 m/s
- Variation value, sensory nerve conduction velocity ([4]; left sural nerve (abnormal)): −0.3 m/s and 1.9 m/s
- Baseline value, sensory nerve conduction velocity ([4]; left sural nerve (abnormal)): 40.5 m/s and 38.5 m/s
- Variation value, sensory nerve conduction velocity ([4]; right median nerve (abnormal)): −0.6 m/s
- Administration D58, sensory nerve conduction velocity ([4]; right median nerve (abnormal)): 25.6 m/s
- Baseline value, sensory nerve conduction velocity ([4]; right median nerve (abnormal)): 26.2 m/s
- Variation value, sensory nerve conduction velocity ([4]; right sural nerve (abnormal)): −0.4 m/s and 2.1 m/s and 1.4 m/s
- Baseline value, sensory nerve conduction velocity ([4]; right sural nerve (abnormal)): 40.0 m/s and 39.0 m/s and 41.2 m/s
- improvement in abnormal sensory nerve conduction velocity compared with the placebo group [4, 10]: no significant improvement
- Change value, sural sensory nerve conduction velocity, Mean ± SD [5]: 0.9 ± 1.1 m/s
- D58 of administration, sural sensory nerve conduction velocity, Mean ± SD [5]: 40.8 ± 1.0 m/s
- Baseline value, sural sensory nerve conduction velocity, Mean ± SD [5]: 39.8 ± 1.0 m/s
- Change value, sural sensory nerve conduction velocity ([5]; left sural nerve (abnormal)): −0.3 m/s and 1.9 m/s
- D58 of administration, sural sensory nerve conduction velocity ([5]; left sural nerve (abnormal)): 40.2 m/s and 40.4 m/s
- Change value, sural sensory nerve conduction velocity ([5]; right sural nerve (abnormal)): −0.4 m/s and 2.1 m/s and 1.4 m/s
- D58 of administration, sural sensory nerve conduction velocity ([5]; right sural nerve (abnormal)): 39.6 m/s and 41.1 m/s and 42.6 m/s
- improvement in abnormal sural sensory nerve conduction velocity compared with the placebo group [5, 10]: no significant improvement
